The text below walks through data of patent publication US8354403B2, “Pyrrolidine derived beta 3 adrenergic receptor agonists” (Merck Sharp & Dohme Corp., priority 2009, dated 2013).

The target in one experiment is T1, human β3 adrenergic receptor (Homo sapiens, UniProt P13945).
T1 construct: expressed in transfected cells; host or cells: Chinese hamster ovary (CHO) cells, stably transfected
T1 sequence (P13945 whole entry): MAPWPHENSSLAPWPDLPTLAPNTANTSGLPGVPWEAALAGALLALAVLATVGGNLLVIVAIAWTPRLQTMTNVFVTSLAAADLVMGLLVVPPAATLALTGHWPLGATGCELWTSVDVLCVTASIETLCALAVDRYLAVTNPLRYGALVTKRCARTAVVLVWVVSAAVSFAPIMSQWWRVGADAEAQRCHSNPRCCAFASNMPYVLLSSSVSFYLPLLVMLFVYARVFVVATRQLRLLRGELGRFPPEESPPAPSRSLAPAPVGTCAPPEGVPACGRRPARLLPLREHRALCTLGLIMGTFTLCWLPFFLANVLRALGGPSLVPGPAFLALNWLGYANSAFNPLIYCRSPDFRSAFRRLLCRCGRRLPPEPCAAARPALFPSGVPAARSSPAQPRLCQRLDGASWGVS
As to the kind of experiment: Beta-3 agonist in vitro functional assay: cAMP production (LANCE TR-FRET) in CHO cells stably transfected with the cloned β3 receptor. The conditions noted are these: Human β3 agonist functional activity. It is filed as cell-based. In outline: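 CHO cells stably expressing the cloned receptor, in HEPES-buffered HBSS with BSA and 0.6 mM IBMX, 6,000 cells/well, exposed to compound for 30 min at RT. cAMP read by LANCE TR-FRET against a cAMP standard curve. Isoproterenol defines maximal stimulation.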
In general terms: Changes in cAMP serve as a functional read-out for many G protein-coupled receptors.
With `O=C(c1ccc(C[C@@H]2CC[C@H]([C@H](O)c3ccccc3)N2)cc1)N1CCc2c(O)noc2C1` [Example 54], the EC50 lay in the range of 100 to 999 nM.

The same experiment, now with this note: Table 4; cAMP, CHO cells; read-out: Human β3 agonist functional activity.
As for `O=C(c1ccc(C[C@@H]2CC[C@H]([C@H](O)c3ccccc3)N2)cc1)N1Cc2cnn(C(F)(F)F)c2C1` [Example 30], the EC50 was in the range of 100 to 999 nM.
In the case of `O=C(c1ccc(C[C@@H]2CC[C@H]([C@H](O)c3cccnc3)N2)cc1)N1CCCC1c1ccccc1F` (stereo partly shown) [Example 16], the EC50 fell in the range of 100 to 999 nM.
Turning to `O=C(c1ccc(C[C@@H]2CC[C@H]([C@H](O)c3ccccc3)N2)cc1)N1CCCC2(CCOC2=O)C1` (stereo partly shown) [Example 40], the EC50 fell in the range of 10 to 99.9 nM.
In the case of `O=C(c1ccc(C[C@@H]2CC[C@H]([C@H](O)c3ccccc3)N2)cc1)N1CC2CC(n3cnnn3)CC2C1` (stereo partly shown) [Example 23], the EC50 lay in the range of 10 to 99.9 nM.

Staying with this experiment, now noted: Table 5; cAMP, CHO cells; read-out: Human β3 agonist functional activity.
For the molecule `O=C(c1ccc(C[C@@H]2CC[C@H]([C@H](O)c3ccccc3)N2)cc1)N1CCC(n2cnnc2)CC1` [Example 91], the EC50 lay in the range of 100 to 999 nM.
In the case of `O=C(c1ccc(C[C@@H]2CC[C@H]([C@H](O)c3ccccc3)N2)cc1)N1CCC(n2c(=O)[nH]c3ccccc32)CC1` [Example 74], the EC50 was in the range of 100 to 999 nM.
Take `O=C(c1ccc(C[C@@H]2CC[C@H]([C@H](O)c3ccccc3)N2)cc1)N1CCC(S(=O)(=O)c2ccccc2)CC1` [Example 127]: the EC50 fell in the range of 10 to 99.9 nM.
Consider `O=C(c1ccc(C[C@@H]2CC[C@H]([C@H](O)c3ccccc3)N2)cc1)N1CCC(c2nc3ccccc3o2)CC1` [Example 78], for which the EC50 lay in the range of 100 to 999 nM.
As for `O=C(c1ccc(C[C@@H]2CC[C@H]([C@H](O)c3cccnc3)N2)cc1)N1CCC(S(=O)(=O)c2cccc(F)c2)CC1` [Example 131], the EC50 lay in the range of 100 to 999 nM.

Still in this experiment, the particulars now being: Table 8; Beta-3 agonist in vitro functional assay; read-out: Human β3 agonist functional activity.
As for `CN1CCC2(CCN(C(=O)c3ccc(C[C@@H]4CC[C@H]([C@H](O)c5ccccc5)N4)cc3)CC2)C1=O` [Example 251], the EC50 was 100 to 999 nM.
`O=C(c1ccc(C[C@@H]2CC[C@H]([C@H](O)c3cccnc3)N2)cc1)N1CCC2(CC1)NC(=O)N(Cc1ccccc1)C2=O` [Example 270]: the EC50 was in the range of 10 to 99.9 nM.
`CCCN(CCC)C(=O)CC1(c2ccccc2)CCN(C(=O)c2ccc(C[C@@H]3CC[C@H]([C@H](O)c4ccccc4)N3)cc2)CC1` [Example 248]: the EC50 lay within 100 to 999 nM.
As to `Cc1ccc(CC2(O)CCN(C(=O)c3ccc(C[C@@H]4CC[C@H]([C@H](O)c5ccccc5)N4)cc3)CC2)cc1` [Example 246], the EC50 lay within 10 to 99.9 nM.

The same experiment, now with this note: Table 9; Beta-3 agonist in vitro functional assay; read-out: Human β3 agonist functional activity.
Consider `COC(=O)c1ccccc1N1CCN(C(=O)c2ccc(C[C@@H]3CC[C@H]([C@H](O)c4ccccc4)N3)cc2)CC1` [Example 351], for which the EC50 fell in the range of 10 to 99.9 nM.
Take `O=C(c1ccc(C[C@@H]2CC[C@H]([C@H](O)c3ccccc3)N2)cc1)N1CCN(Cc2nc3ccccc3s2)CC1` [Example 404]: the EC50 fell in the range of 10 to 99.9 nM.
For `CCOc1cccnc1N1CCN(C(=O)c2ccc(C[C@@H]3CC[C@H]([C@H](O)c4ccccc4)N3)cc2)CC1` [Example 362], the EC50 was in the range of 10 to 99.9 nM.
Take `O=C(c1ccc(C[C@@H]2CC[C@H]([C@H](O)c3ccccc3)N2)cc1)N1CCN(c2ncccc2-c2ccc(F)cc2)CC1` [Example 369]: the EC50 lay in the range of 10 to 99.9 nM.
With `O=C(O)[C@@H]1CCCN1C(=O)CN1CCN(C(=O)c2ccc(C[C@@H]3CC[C@H]([C@H](O)c4ccccc4)N3)cc2)CC1` [Example 391], the EC50 lay in the range of 100 to 999 nM.
Turning to `O=C(O)c1ccccc1N1CCN(C(=O)c2ccc(C[C@@H]3CC[C@H]([C@H](O)c4ccccc4)N3)cc2)CC1` [Example 350], the EC50 was in the range of 100 to 999 nM.
Same read-out and setting: to `O=C(c1ccc(C[C@@H]2CC[C@H]([C@H](O)c3ccccc3)N2)cc1)N1CCN(c2nccnc2Cl)CC1` [Example 371] belongs 100 to 999 nM; to `O=C(c1ccc(C[C@@H]2CC[C@H]([C@H](O)c3ccccc3)N2)cc1)N1CCN(Cc2noc3ccccc23)CC1` [Example 407], 1 to 9.9 nM.
The same measure, in the same setting: to `O=C(c1ccc(C[C@@H]2CC[C@H]([C@H](O)c3ccccc3)N2)cc1)N1CCN(C2(c3ccccn3)CC2)CC1` [Example 420] belongs 100 to 999 nM.

The same experiment, now with this note: Table 10; Beta-3 agonist in vitro functional assay; read-out: Human β3 agonist functional activity.
Take `CCN(C(=O)C(C)N1CCN(C(=O)c2ccc(C[C@@H]3CC[C@H]([C@H](O)c4ccccc4)N3)cc2)CC1)C(C)C` (stereo partly shown) [Example 515]: the EC50 was 10 to 99.9 nM.
As to `CC(C(=O)NC1CCOCC1)N1CCN(C(=O)c2ccc(C[C@@H]3CC[C@H]([C@H](O)c4ccccc4)N3)cc2)CC1` (stereo partly shown) [Example 468], the EC50 was 100 to 999 nM.
Same read-out and setting: to `CC(C(=O)N1Cc2cccnc2C1)N1CCN(C(=O)c2ccc(C[C@@H]3CC[C@H]([C@H](O)c4ccccc4)N3)cc2)CC1` (stereo partly shown) [Example 482] belongs 10 to 99.9 nM.
As for `CCNC(=O)C(C)N1CCN(C(=O)c2ccc(C[C@@H]3CC[C@H]([C@H](O)c4ccccc4)N3)cc2)CC1` (stereo partly shown) [Example 436], the EC50 fell in the range of 100 to 999 nM.
With `CC(C(=O)N(C)C)N1CCN(C(=O)c2ccc(C[C@@H]3CC[C@H]([C@H](O)c4ccccc4)N3)cc2)CC1` (stereo partly shown) [Example 513], the EC50 fell in the range of 1 to 9.9 nM.
As for `CC(C(=O)N1Cc2cncnc2C1)N1CCN(C(=O)c2ccc(C[C@@H]3CC[C@H]([C@H](O)c4ccccc4)N3)cc2)CC1` (stereo partly shown) [Example 483], the EC50 fell in the range of 100 to 999 nM.

The experiment is the same for the next values; noted with them: Table 11; cAMP, CHO cells; read-out: Human β3 agonist functional activity.
On to `O=C(c1ccc(C[C@@H]2CC[C@H]([C@H](O)c3ccccc3)N2)cc1)N1CCN(c2ccccn2)C(=O)C1` [Example 546], for which the EC50 was 100 to 999 nM.

Still in this experiment, the particulars now being: Table 12; human β3 functional activity given as ranges; read-out: Human β3 agonist functional activity.
Consider `O=C(c1ccc(CC2CCC(C(O)c3ccccc3)N2)cc1)N1CCC2(CC1)C(=O)NCC2c1ccc(F)cc1` (single isomer, unassigned) [Example 558], for which the EC50 was under 1 nM.
For the molecule `CC(C)C1CC2(CCN(C(=O)c3ccc(CC4CCC(C(O)c5ccccc5)N4)cc3)CC2)C(=O)O1` (single isomer, unassigned) [Example 567], the EC50 was 1 to 9.9 nM.
On the same count and under the same terms, under `CCC1CC2(CCN(C(=O)c3ccc(CC4CCC(C(O)c5ccccc5)N4)cc3)CC2)C(=O)O1` (single isomer, unassigned) [Example 563] stands 1 to 9.9 nM; under `CC(c1cccnn1)N1CCN(C(=O)c2ccc(CC3CCC(C(O)c4ccccc4)N3)cc2)CC1` (single isomer, unassigned) [Example 591], 10 to 99.9 nM; under `O=C(c1ccc(CC2CCC(C(O)c3ccccc3)N2)cc1)N1CCN(C2CCN(c3ccccc3)C2=O)CC1` (single isomer, unassigned) [Example 605], 1 to 9.9 nM.
Take `CC(C)(C)C1CC2(CCN(C(=O)c3ccc(CC4CCC(C(O)c5ccccc5)N4)cc3)CC2)C(=O)O1` (single isomer, unassigned) [Example 569]: the EC50 lay in the range of 1 to 9.9 nM.
`O=C1OCCC1N1CCN(C(=O)c2ccc(CC3CCC(C(O)c4ccccc4)N3)cc2)CC1` (single isomer, unassigned) [Example 603]: the EC50 was 1 to 9.9 nM.

The experiment is the same for the next values; noted with them: Table 13; human Beta-3 agonist functional activity given as range; read-out: Human β3 agonist functional activities.
As to `O=C(c1ccc(C[C@@H]2CC[C@H]([C@H](O)c3ccccc3)N2)c(Br)c1)N1CC2C(C1)C2n1cnnn1` (stereo partly shown) [Example 609], the EC50 fell in the range of 1 to 9.9 nM.

The same experiment, now with this note: given as a range; cAMP, CHO cells; read-out: human β3 functional activity.
In the case of `O=C(c1ccc(C[C@@H]2CC[C@H]([C@H](O)c3ccccc3)N2)cc1)N1C[C@@H]2[C@H](C1)[C@H]2c1nnco1` [Example 170], the EC50 was 1 to 9.9 nM.

The next experiment deals with T2, β3AR (Rattus norvegicus, UniProt P26255).
T2 construct: host or cells: live rats (bladder, in vivo)
T2 sequence (P26255 whole entry): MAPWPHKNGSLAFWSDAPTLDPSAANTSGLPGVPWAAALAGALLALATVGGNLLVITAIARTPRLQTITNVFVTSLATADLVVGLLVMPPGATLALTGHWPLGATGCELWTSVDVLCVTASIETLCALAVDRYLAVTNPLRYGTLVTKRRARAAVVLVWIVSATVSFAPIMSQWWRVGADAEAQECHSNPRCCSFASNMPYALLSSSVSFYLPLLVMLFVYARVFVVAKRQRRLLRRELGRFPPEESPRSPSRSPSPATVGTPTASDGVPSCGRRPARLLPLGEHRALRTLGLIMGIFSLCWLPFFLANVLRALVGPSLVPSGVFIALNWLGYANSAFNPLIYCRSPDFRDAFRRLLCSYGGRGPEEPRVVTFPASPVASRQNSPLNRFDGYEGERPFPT
Assay: not given
The conditions noted are these: rats, intravenous administration, cystometric studies; cited from earlier work.
Turning to `C[C@H](Cc1ccc2c(c1)OC(C(=O)[O-])(C(=O)[O-])O2)NC[C@H](O)c1cccc(Cl)c1.[Na+].[Na+]` [CL316243], the bladder capacity result is reported as “increases bladder capacity”, the micturition interval entry was “prolongation of micturition interval” and the residual urine volume entry was “without increasing residual urine volume”.

Staying with this experiment, now noted: rats, intravenous administration; cited from earlier work.
Consider `C[C@H](Cc1ccc2c(c1)OC(C(=O)[O-])(C(=O)[O-])O2)NC[C@H](O)c1cccc(Cl)c1.[Na+].[Na+]` [CL316243], for which the bladder pressure entry is given as “reduces bladder pressure”.
